The test has as its system CA1 region of hippocampal organotypic cultures. The test can be described thus: Kainic acid-induced neuronal cell death (experimental status epilepticus), propidium iodide uptake in hippocampal organotypic cultures. The class given is cell-based, rat. How it is done: A seizure-induced neuronal cell death in vitro experimental model of status epilepticus was provided as follows. The neuroprotective potential of (R)-3-hydroxybutyrate sodium salt (BHB) (0.3 mM, 1 mM and 3 mM) was assessed by propidium iodide uptake into hippocampal organotypic cultures administered 1 μM KA for 24 h to induce experimental status epilepticus. Neuronal cell death is already observed at 24 h subsequent to KA-application therefore, it was of no value to administer to the cultures at this time-point. Test compound was, therefore, added to the cultures before significant neuronal cell death occurred.
Hippocampal organotypic slice cultures were prepared according to the Gähwiler roller-tube method (Gähwiler B H (1981) and Gähwiler et al (1997)) from nine rat pups aged between […].
Rat pups were killed by cervical dislocation, their brains rapidly removed and placed in a Petri dish. The meninges were removed from the caudal section of the cortex and then the brain was located with the ventral surface uppermost. Two transverse cuts were made, the first, at the level of the cerebellum to remove the brainstem, and the second, at the level of the optic chiasm to remove the forebrain. The cerebellum, midbrain and hindbrain were lifted upwards from the surrounding cortical tissue leaving one hippocampus embedded within each cortical hemisphere. An incision was made down the midline to separate the two cortical hemispheres. To separate the hippocampus from the surrounding cortical tissue three incisions were made around the hippocampus and then it was rolled out from the underlying tissue. The isolated hippocampus was then placed in a drop of ice-cold Gey's balanced salt solution containing 0.5% D-glucose (GBSS+G). The procedure was then repeated to isolate the remaining hippocampus. The whole procedure was performed using a Swift dissecting microscope and took between 10-15 mins thereby minimizing tissue deterioration.
The hippocampi were transferred to a Mcllwain tissue chopper and sectioned into a series of 400 μm thick slices. After sectioning, the hippocampi were placed in ice-cold GBSS+G and the slices gently teased apart. The slices were washed once in GBSS+G and the integrity of the slices checked under a higher magnification. If the slices had any tears, an opaque appearance or the cell body layers were not easily visible, they were discarded. A healthy slice has a yellow-brown colouration without any blackening in the cell body regions.
To adhere the hippocampal slice to a coverslip (Agar Scientific, UK), 20 μl of chicken plasma was placed in the middle of the coverslip followed by a hippocampal slice. The plasma was spread thinly over the surface of the coverslip, to ensure the slice was well coated. Then, 30 μl of thrombin (75 units/ml activity) was placed over the slice and mixed thoroughly with the chicken plasma. The plasma-thrombin mixture was left for approximately 60 s until a clot of jelly-like consistency had formed. The coverslip was then placed in a test-tube (Nunclon, UK) which contained 750 μl of pre-warmed culture media (37° C.). Culture media consisted of 50% basal media Earles, 25% Hank's balanced salt solution, 25% heat inactivated horse serum, […] L-glutamine and 0.5% D-glucose. The test tubes were sealed with a screw top lid and placed in a custom made roller-drum (Medical School Workshop, University of Nottingham) at an angle of 5°, rotating at 10 revolutions per hour in a dry incubator at 37° C.
After 48 h in vitro, 500 μl of media was removed and the cultures were incubated in culture media containing a combination of anti-mitotics, which consisted of 5-fluorodeoxyuridine, cytosine-β-D-arabino-furanoside (ARA-C) and uridine each at a concentration of 1 μM. After a further 24 h, 500 μl of media was removed and replaced with 500 μl of new culture media containing no anti-mitotics. […]

The structures appear in SMILES notation. “And” between values parts separate entries of the source, which are not always exact repeats. Identical values can stand only once.

As to `C[C@@H](O)CC(=O)[O-].[Na+]` [KTX0101, sodium salt of (R)-3-hydroxybutyrate], the “percentage propidium iodide uptake (mean)” value reads like this: (KTX0101 0.3 mM added 30 mins after KA 1 μM, assessed at 24 h, n=12) 6.48%; (KTX0101 0.3 mM for 7 d following KA 1 μM for 24 h, assessed at 7 d, n=12) 1.54%; (KTX0101 0.3 mM for 7 d following KA 1 μM for 24 h, assessed at 7 d, n=12, listed as BHB) 1.54±0.33% and 1.54%; (KTX0101 1.0 mM added 30 mins after KA 1 μM, assessed at 24 h, n=13) 4.89%; (KTX0101 1.0 mM for 7 d following KA 1 μM for 24 h, assessed at 7 d, n=13) 1.05%; (KTX0101 1.0 mM for 7 d following KA 1 μM for 24 h, assessed at 7 d, n=13, listed as BHB) 1.05±0.29% and 1.05%. Moreover, the “percentage propidium iodide uptake (mean)” value is 4.72% (KTX0101 3.0 mM added 30 mins after KA 1 μM, assessed at 24 h, n=13); 1.25% (KTX0101 3.0 mM for 7 d following KA 1 μM for 24 h, assessed at 7 d, n=13); 1.25±0.21% and 1.25% (KTX0101 3.0 mM for 7 d following KA 1 μM for 24 h, assessed at 7 d, n=13, listed as BHB).

As for `C=C(C)[C@H]1CN[C@H](C(=O)O)[C@H]1CC(=O)O` [KA, kainic acid, reference compound], the “percentage propidium iodide uptake (mean)” value is, setting by setting: (KA 1 μM alone for 24 h, then washout, assessed at 7 d, n=12, control cultures 1.81) 6.97±2.03% and 6.97%; (KA 1 μM alone for 24 h, assessed at 24 h, n=12, control cultures 1.68) 8.89±1.78% and 8.89%.

(Values after patent US20190247340A1, “EPILEPSY TREATMENT EMPLOYING KETOGENIC COMPOUNDS WHICH ARREST APOPTOSIS” (priority 2004, published 2019).)
